Measurements as given in patent publication US11339161B2, “Triazolo pyridines as modulators of gamma-secretase” (Boehringer Ingelheim International GmbH, priority 2017, dated 2022).
Like-named read-outs stand apart in the source and are kept apart here.

What was measured:
[1] = molecular target: RPS6KB1 (p70S6K) (Homo sapiens, UniProt P23443); experiment: Z'-LYTE SelectScreen biochemical kinase assay RPS6KB1 (p70S6K)
Description: (§1) Thermo Fisher Scientific SelectScreen™ Biochemical Kinase Profiling Service Z′-LYTE™ Screening Protocol and Assay Conditions Assay Theory
(§2) The […] biochemical assay employs a fluorescence-based, coupled-enzyme format and is based on the differential sensitivity of phosphorylated and non-phosphorylated peptides to proteolytic cleavage. The peptide substrate is labeled with two fluorophores—one at each end—that make up a FRET pair. In the primary reaction, the kinase transfers the gamma-phosphate of ATP to a single tyrosine, serine or threonine residue in a synthetic FRET-peptide. In the secondary reaction, a site-specific protease recognizes and cleaves non-phosphorylated FRET-peptides. Phosphorylation of FRET-peptides suppresses cleavage by the Development Reagent. Cleavage disrupts FRET between the donor (i.e., coumarin) and acceptor (i.e., fluorescein) fluorophores on the FRET-peptide, whereas uncleaved, phosphorylated FRET-peptides maintain FRET. A ratiometric method, which calculates the ratio (Emission Ratio=Coumarin emission (445 nm)/Fluorescein emission (520 nm)) of donor emission to acceptor emission after excitation of the donor fluorophore at 400 nm, is used to quantitate reaction progress, as shown in the equation below. A significant benefit of this ratiometric method for quantitating reaction progress is the elimination of well-to-well variations in FRET-peptide concentration and signal intensities. As a result, the assay yields very high Z′-factor values (>0.7) at a low percent phosphorylation. Both cleaved and uncleaved FRET-peptides contribute to the fluorescence signals and therefore to the Emission Ratio. The extent of phosphorylation of the FRET-peptide can be calculated from the Emission Ratio. The Emission Ratio will remain low if the FRET-peptide is phosphorylated (i.e., no kinase inhibition) and will be high if the FRET-peptide is non-phosphorylated (i.e., kinase inhibition).
(§3) The Test Compounds are screened in 1% DMSO (final) in the well. For 10 point titrations, 3-fold serial dilutions are conducted from the starting concentration of the customer's choosing.
(§4) All Peptide/Kinase Mixtures are diluted to a 2× working concentration in the appropriate Kinase Buffer (see section Kinase Specific Assay Conditions for a complete description).
(§5) All ATP Solutions are diluted to a 4× working concentration in Kinase Buffer (50 mM HEPES pH 7.5, 0.01% BRIJ-35, 10 mM MgCl2, 1 mM EGTA). ATP Km apparent is previously determined using a Z″-LYTE assay.
(§6) The Development Reagent is diluted in Development Buffer (see section Kinase-Specific Assay Conditions—Direct and Cascade for a complete description).
(§7) Bar-coded Corning, low volume NBS, black 384-well plate (Corning Cat. #4514) • 1. 100 nL—100× Test Compound in 100% DMSO • 2. 2.4 μL—Kinase buffer • 3. 5 μL—2× Peptide/Kinase Mixture • 4. 2.5 μL—4×ATP Solution • 5. 30—second plate shake • 6. 60—minute Kinase Reaction incubation at room temperature • 7. 5 μL—Development Reagent Solution • 8. 30—second plate shake • 9. 60—minute Development Reaction incubation at room temperature • 10. Read on fluorescence plate reader and analyze the data Z′-LYTE Assay Controls
(§8) SelectScreen Kinase Profiling Service uses XLfit from IDBS. The dose response curve is curve fit to model number 205 (sigmoidal dose-response model).
The 2×RPS6 KB1 (p70S6K)/Ser/Thr 07 mixture is prepared in 50 mM HEPES pH 7.5, 0.01% BRIJ-35, 10 mM MgCl2, 1 mM EGTA. The final 10 μL Kinase Reaction consists of 2.87-17.7 ng RPS6 KB1 (p70S6K) and 2 μM Ser/Thr 07 in 50 mM HEPES pH 7.5, 0.01% BRIJ-35, 10 mM MgCl2, 1 mM EGTA. After the 1 hour Kinase Reaction incubation, 5 μL of a 1:45000 dilution of Development Reagent A is added.

[2] = molecular target: PTK2 (FAK) (Homo sapiens, UniProt Q05397); experiment: Z'-LYTE SelectScreen biochemical kinase assay PTK2 (FAK)
Description: as §1, §2, §3, §4, §5, §6, §7, §8
The 2×PTK2 (FAK)/Tyr 07 mixture is prepared in 50 mM HEPES pH 7.5, 0.01% BRIJ-35, 10 mM MgCl2, 1 mM EGTA. The final 10 μL Kinase Reaction consists of 12.5-100 ng PTK2 (FAK) and 2 μM Tyr 07 in 50 mM HEPES pH 7.5, 0.01% BRIJ-35, 10 mM MgCl2, 1 mM EGTA. After the 1 hour Kinase Reaction incubation, 5 μL of a 1:16 dilution of Development Reagent B is added.

[3] = 10 μmolar compound concentration, ATP at Km app, read-out: RPS6KB1 (p70S6K) inhibition
[4] = 10 μmolar compound concentration, ATP at Km app, read-out: PTK2 (FAK) inhibition
[5] = read-out: % Inhibition mean PTK2 (FAK)
[6] = read-out: % Inhibition mean RPS6KB1 (p70S6K)

Chain of RPS6KB1 (p70S6K) (P23443 whole entry): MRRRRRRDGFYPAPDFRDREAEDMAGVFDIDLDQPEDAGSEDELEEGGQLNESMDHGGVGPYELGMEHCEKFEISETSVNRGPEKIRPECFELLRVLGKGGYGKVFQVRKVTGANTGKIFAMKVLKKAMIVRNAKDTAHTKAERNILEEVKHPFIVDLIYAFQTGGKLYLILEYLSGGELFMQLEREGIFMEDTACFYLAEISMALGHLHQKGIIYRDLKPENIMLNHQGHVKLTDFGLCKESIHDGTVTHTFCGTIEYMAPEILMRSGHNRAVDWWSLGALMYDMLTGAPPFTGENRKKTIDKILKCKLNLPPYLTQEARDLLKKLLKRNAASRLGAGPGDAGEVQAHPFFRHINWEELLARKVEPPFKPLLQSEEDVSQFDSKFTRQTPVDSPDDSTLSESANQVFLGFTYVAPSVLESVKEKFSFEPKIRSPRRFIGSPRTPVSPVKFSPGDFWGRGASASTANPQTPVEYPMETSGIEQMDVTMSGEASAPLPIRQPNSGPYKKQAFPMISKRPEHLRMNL
Chain of PTK2 (FAK) (Q05397 whole entry): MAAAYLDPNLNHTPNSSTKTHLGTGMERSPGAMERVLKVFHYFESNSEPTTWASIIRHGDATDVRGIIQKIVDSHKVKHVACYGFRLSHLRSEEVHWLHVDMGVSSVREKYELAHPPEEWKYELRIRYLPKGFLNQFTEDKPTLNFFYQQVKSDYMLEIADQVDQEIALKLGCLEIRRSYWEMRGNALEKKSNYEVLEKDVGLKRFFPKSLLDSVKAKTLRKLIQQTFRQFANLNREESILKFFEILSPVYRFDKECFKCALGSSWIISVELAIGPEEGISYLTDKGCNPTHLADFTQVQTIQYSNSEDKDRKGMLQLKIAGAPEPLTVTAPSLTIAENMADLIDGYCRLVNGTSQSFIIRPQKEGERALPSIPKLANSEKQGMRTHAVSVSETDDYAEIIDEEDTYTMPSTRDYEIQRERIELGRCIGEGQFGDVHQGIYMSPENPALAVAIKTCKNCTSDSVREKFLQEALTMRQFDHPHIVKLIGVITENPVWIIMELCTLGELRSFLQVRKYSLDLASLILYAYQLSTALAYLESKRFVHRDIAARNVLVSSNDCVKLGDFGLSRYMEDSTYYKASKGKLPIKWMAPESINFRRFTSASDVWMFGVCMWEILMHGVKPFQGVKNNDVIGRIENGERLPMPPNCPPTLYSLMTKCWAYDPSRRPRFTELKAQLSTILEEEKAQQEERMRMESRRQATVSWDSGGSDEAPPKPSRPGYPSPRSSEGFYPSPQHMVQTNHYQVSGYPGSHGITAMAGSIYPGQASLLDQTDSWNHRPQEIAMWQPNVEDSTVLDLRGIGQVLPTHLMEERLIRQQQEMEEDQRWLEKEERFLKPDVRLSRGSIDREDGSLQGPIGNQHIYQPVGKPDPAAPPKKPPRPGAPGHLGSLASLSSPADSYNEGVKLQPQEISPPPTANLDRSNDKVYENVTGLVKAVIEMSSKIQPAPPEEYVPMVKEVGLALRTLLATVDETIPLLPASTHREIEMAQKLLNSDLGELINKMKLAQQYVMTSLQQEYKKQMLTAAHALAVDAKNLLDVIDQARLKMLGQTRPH

Compound	inhibition at 10 µM [1, 3] [%]	inhibition at 10 µM [2, 4] [%]	inhibition at 10 µM [2, 5] [%]	inhibition at 10 µM [1, 6] [%]
CCn1ncc2c1CCC(Nc1nc3c(-c4ccccc4)cccn3n1)C2 (stereo not shown) [Example 57, (1-Ethyl-4,5,6,7-tetrahydro-1H-indazol-5-yl)-(8-phenyl-[1,2,4]triazolo[1,5-a]pyridine-2-yl)-amine]	< 40	< 40	16	
Cc1cc(F)ccc1-c1cccn2nc(NC3CCc4c(cnn4CC(C)C)C3)nc12 (stereo not shown) [Example 45, [8-(4-fluoro-2-methyl-phenyl)-[1,2,4]triazolo[1,5-a]pyridine-2-yl]-(1-isobutyl-4,5,6,7-tetrahydro-1H-indazol-5-yl)-amine]	< 40	< 40	20	7
CCn1ncc2c1CCC(Nc1nc3c(-c4ccc(F)cc4C)cccn3n1)C2 (stereo not shown) [Example 42, (1-Ethyl-4,5,6,7-tetrahydro-1H-indazol-5-yl)-[8-(4-fluoro-2-methyl-phenyl)-[1,2,4]triazolo[1,5-a]pyridine-2-yl]-amine]	< 40	< 40	26	6
CCn1ncc2c1CC[C@@H](Nc1nc3c(-c4ccc(F)c(Cl)c4)cccn3n1)C2 [Example R-61, (R)-[8-(3-Chloro-4-fluoro-phenyl)-[1,2,4]triazolo[1,5-a]pyridine-2-yl]-(1-ethyl-4,5,6,7-tetrahydro-1H-indazol-5-yl)-amine]	< 40	< 40	16	3
CCc1nn(C)c2c1CCC(Nc1nc3c(-c4ccc(F)cc4C)cccn3n1)C2 (stereo not shown) [Example 54, (3-Ethyl-1-methyl-4,5,6,7-tetrahydro-1H-indazol-6-yl)-[8-(4-fluoro-2-methyl-phenyl)-[1,2,4]triazolo[1,5-a]pyridine-2-yl]-amine]	< 40	< 40	14	1
CCn1ncc2c1CCC(Nc1nc3c(-c4cccnc4)cccn3n1)C2 (stereo not shown) [Example 63, (1-Ethyl-4,5,6,7-tetrahydro-1H-indazol-5-yl)-(8-pyridin-3-yl-[1,2,4]triazolo[1,5-a]pyridine-2-yl)-amine]	< 40	< 40	13	3
CCn1ncc2c1CCC(Nc1nc3c(-c4cncc(OC)c4)cccn3n1)C2 (stereo not shown) [Example 70, (1-Ethyl-4,5,6,7-tetrahydro-1H-indazol-5-yl)-[8-(5-methoxy-pyridin-3-yl)-[1,2,4]triazolo[1,5-a]pyridine-2-yl]-amine]	< 40	< 40	14	-3

Next, values leading:

inhibition at 10 µM [1, 3] [%]	inhibition at 10 µM [2, 4] [%]	inhibition at 10 µM [2, 5] [%]	inhibition at 10 µM [1, 6] [%]	Compound
< 40	< 40	23	22	CCn1ncc2c1CC[C@H](Nc1nc3c(-c4ccc(F)c(Cl)c4)cccn3n1)C2 [Example S-61, (S)-[8-(3-Chloro-4-fluoro-phenyl)-[1,2,4]triazolo[1,5-a]pyridine-2-yl]-(1-ethyl-4,5,6,7-tetrahydro-1H-indazol-5-yl)-amine]
< 40	< 40	24	6	CCCCn1ncc2c1CCC(Nc1nc3c(-c4ccc(F)cc4C)cccn3n1)C2 (stereo not shown) [Example 46, [8-(4-fluoro-2-methyl-phenyl)-[1,2,4]triazolo[1,5-a]pyridine-2-yl]-(1-butyl-4,5,6,7-tetrahydro-1H-indazol-5-yl)-amine]
< 40	< 40	32	33	CCn1ncc2c1C(C)CC(Nc1nc3c(-c4cc(F)c(F)c(F)c4)cccn3n1)C2 (stereo not shown) [Example 49, (1-Ethyl-7-methyl-4,5,6,7-tetrahydro-1H-indazol-5-yl)-[8-(3,4,5-trifluoro-phenyl)-[1,2,4]triazolo[1,5-a]pyridine-2-yl]-amine]
< 40	< 40	28	17	CCn1ncc2c1CCC(Nc1nc3c(-c4cnccc4OC)cccn3n1)C2 (stereo not shown) [Example 68, (1-Ethyl-4,5,6,7-tetrahydro-1H-indazol-5-yl)-[8-(4-methoxy-pyridin-3-yl)-[1,2,4]triazolo[1,5-a]pyridine-2-yl]-amine]
